Measured values taken from the supplement of paper PMC11208160.

assay: recombinant barcode read abundance after kanamycin selection (control-corrected) (log10(CPM+1)); higher = more efficient recombination; sequences stand for … in AGTGCAGAGAAAATCGGCCAGTTTTCTCTGCCTGCAGTCCGCATGCCGT…AGATTTATGCAGCGGACTGCCTTTCTCCCAAAGTGATAAACCGGACAGTATCATGGACCGGTTTTCCCGGTAATCCGTATTTGCAAGGTTGGTTTCACT; site = the 11-nt target
Method: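 Pooled E. coli target-specificity screen for the IS621 bridge recombinase. Each library plasmid pairs an 11-nt target (CT core) with a bridge RNA whose target-binding loop (9-nt LTG + 4-nt RTG) is reprogrammed; the rest of the 177-nt WT IS621 bridge RNA scaffold is fixed. The plasmid is co-electroporated with a WT donor plasmid; recombinase is induced with 0.1 mM IPTG and recombinants are selected on kanamycin. Recombinant barcodes are sequenced, converted to CPM, averaged over two biological replicates and corrected by the unselected control CPM. Molecule = full bridge RNA written as DNA: LTG = specificity nt 1-9, RTG = reverse complement of specificity nt 8-11, in the WT scaffold.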
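Further: IS621 recombinase and bridge RNA in Escherichia coli cells.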

| Sequence | recombinant barcode read abundance (log10) |
| --- | --- |
| TAGAATCCTTGGGTTCTAACCTGTTGCAT (site TAGAATCCTAT) | 0.104 |
| ACTAACCCTTGGGTTCTAACCTGTTGCCT (site ACTAACCCTAG) | 1.47 |
| CCACTGTCTTGGGTTCTAACCTGTTGCCT (site CCACTGTCTAG) | 0.632 |
| CTAAGAGCTTGGGTTCTAACCTGTTGCCG (site CTAAGAGCTCG) | 1.65 |
| AGGAGCTCTTGGGTTCTAACCTGTTGCTA (site AGGAGCTCTTA) | 1.27 |
| GCCAACCCTTGGGTTCTAACCTGTTGCAT (site GCCAACCCTAG) | 0.348 |
| AACAGTACTTGGGTTCTAACCTGTTGCCT (site AACAGTACTAG) | 0.845 |
| TCTTGACCTTGGGTTCTAACCTGTTGCTT (site GGCACCACTCG) | 0.063 |
| TGTAGGACTTGGGTTCTAACCTGTTGCCT (site CGTAGGACTAG) | 0.142 |
| CGAGGGTCTTGGGTTCTAACCTGTTGCTT (site CGAGGGTCTAA) | 1.82 |
| AAGTTTACTTGGGTTCTAACCTGTTGCTT (site AAGTTTACTAA) | 0.177 |
| GGAGTTGCTTGGGTTCTAACCTGTTGCCT (site GGAGTTGCTAG) | 2.27 |
| GGAGAGTCTTGGGTTCTAACCTGTTGCCT (site GCAGAGTCTAG) | 0.995 |
| CCTTCCTCTTGGGTTCTAACCTGTTGCCT (site CCTTCCTCTAG) | 0.599 |
| GAAATGACTTGGGTTCTAACCTGTTGCCT (site GGAATGACTAG) | 0.066 |
| GAGCATACTTGGGTTCTAACCTGTTGCCT (site GAGGGTACTAG) | 0.0325 |
| TAGACTGCTTGGGTTCTAACCTGTTGCCT (site TAGGCTGCTAG) | 0.107 |
| TCTGGGGCTTGGGTTCTAACCTGTTGCCT (site TCTGGGGCTAG) | 0.0357 |
| GTGTCAGCTTGGGTTCTAACCTGTTGCCT (site GTGTCAGCTAG) | 1.56 |
| CGTATGTCTTGGGTTCTAACCTGTTGCCT (site CGTATGTCTAG) | 0.684 |
| CTCCGGACTTGGGTTCTAACCTGTTGCCT (site CTCCGGACTAG) | 2.02 |

| Sequence | recombinant barcode read abundance (log10) |
| --- | --- |
| ATGGATCCTTGGGTTCTAACCTGTTGCGT (site ATGGATCCTAC) | 2.77 |
| GTAGACCCTTGGGTTCTAACCTGTTGCCG (site GTTGACCCTAG) | 0.476 |
| CGTCCTTCTTGGGTTCTAACCTGTTGCCT (site CGTCCTTCTAG) | 0.0421 |
| GGGGTAACTTGGGTTCTAACCTGTTGCCT (site GGGGTAACTAG) | 0.58 |
| TATGCTACTTGGGTTCTAACCTGTTGCAT (site AATGCTACTAT) | 1.03 |
| CTACGTACTTGGGTTCTAACCTGTTGCTG (site CTACGAACTCA) | 0.0136 |
| AGACTGACTTGGGTTCTAACCTGTTGCGG (site TCCAAATCTAG) | 0.232 |
| TATTAACCTTGGGTTCTAACCTGTTGCCT (site TATTAACCTAG) | 0.329 |
| CTACGTACTTGGGTTCTAACCTGTTGCTG (site CTACGGACTCA) | 0.0671 |
| AGAGCGACTTGGGTTCTAACCTGTTGCTA (site AGAGCGACTTA) | 0.654 |
| GACGCCACTTGGGTTCTAACCTGTTGCCT (site AACGCCACTAG) | 0.162 |
| CAGTCTGCTTGGGTTCTAACCTGTTGCCT (site CACTCTGCTAG) | 0.0321 |
| AGACCCTCTTGGGTTCTAACCTGTTGCCT (site CGACCCTCTAG) | 0.728 |
| AACGTGTCTTGGGTTCTAACCTGTTGCCT (site AAGGTGTCTAG) | 0.103 |
| GTGGTTCCTTGGGTTCTAACCTGTTGCCT (site GTGGTTCCTAG) | 1.61 |
| CCAAAGACTTGGGTTCTAACCTGTTGCAT (site CCAAAGACTAT) | 0.523 |
| TAAAAGGCTTGGGTTCTAACCTGTTGCCT (site TAAAAGACTAG) | 0.102 |
| GCCTCGTCTTGGGTTCTAACCTGTTGCCT (site GCATCGTCTAG) | 0.0638 |
| TAGTGTTCTTGGGTTCTAACCTGTTGCAT (site TAGTGTCCTAT) | 0.109 |
| CTACTTACTTGGGTTCTAACCTGTTGCCT (site CTACTTACTAG) | 0.741 |
